Assay results reported in patent publication US20230146675A1, “PYRIMIDO[5,4-d]PYRIMIDINE DERIVATIVES AS ENT INHIBITORS FOR THE TREATMENT OF CANCERS, AND COMBINATION THEREOF WITH ADENOSINE RECEPTOR ANTAGONISTS” (ITEOS BELGIUM SA, priority 2020, published 2023).

Molecular target: T1, human ENT1 (Homo sapiens, UniProt Q99808)
T1 sequence (Q99808 1-456): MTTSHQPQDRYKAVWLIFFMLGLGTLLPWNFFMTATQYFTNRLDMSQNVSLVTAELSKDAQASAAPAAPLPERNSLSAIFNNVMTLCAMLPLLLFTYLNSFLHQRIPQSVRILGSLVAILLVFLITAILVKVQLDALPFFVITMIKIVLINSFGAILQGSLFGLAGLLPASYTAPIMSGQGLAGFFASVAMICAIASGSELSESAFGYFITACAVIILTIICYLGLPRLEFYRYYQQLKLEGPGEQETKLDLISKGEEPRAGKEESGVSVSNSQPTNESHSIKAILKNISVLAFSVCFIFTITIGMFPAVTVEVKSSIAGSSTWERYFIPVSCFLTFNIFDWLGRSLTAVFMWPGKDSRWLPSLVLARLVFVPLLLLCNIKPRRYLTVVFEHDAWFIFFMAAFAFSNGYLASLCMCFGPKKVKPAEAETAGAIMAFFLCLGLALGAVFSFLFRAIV
Assay: ENT1 binding assay (competition with Sahenta-DY647 on JAR cells)
Parameters: JAR cells expressing ENT1 were bought from ATCC; host or cells: JAR cells
Settings: binned IC50
Summary of the method: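 JAR cells were incubated with test compounds and the fluorescent ligand Sahenta-DY647 in competition. Plates were washed twice by centrifugation (4 min, 400 rcf, 4 °C). Binding potency was derived from the final fluorescence.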

SMILES | IC50 [nM]
COCCN(CCOC)c1nc(N2CC(=O)N(C)C(C)C2)c2nc(N(CCO)CCO)nc(N3CCC(OC)CC3)c2n1 (centres unmarked) [Compound 310, 4-(6-(bis(2-hydroxyethyl)amino)-2-(bis(2-methoxyethyl)amino)-8-(4-methoxypiperidin-1-yl)pyrimido[5,4-d]pyrimidin-4-yl)-1,6-dimethylpiperazin-2-one] | 500 to 1000
CCN(CCN1CCCCC1)c1nc(N2CCC(OC)CC2)c2nc(N(CCOC)CCOC)nc(N3CCC(OC)CC3)c2n1 [Compound 133, N2-ethyl-N6,N6-bis(2-methoxyethyl)-4,8-bis(4-methoxypiperidin-1-yl)-N2-(2-(piperidin-1-yl)ethyl)pyrimido[5,4-d]pyrimidine-2,6-diamine] | 500 to 1000
COCCN(CCOC)c1nc(N2CCC(OC)CC2)c2nc(N(CCO)CCCS(C)(=O)=O)nc(N3CCN(C)C(=O)C3)c2n1 [Compound 280, 4-(6-(bis(2-methoxyethyl)amino)-2-((2-hydroxyethyl)(3-(methylsulfonyl)propyl)amino)-8-(4-methoxypiperidin-1-yl)pyrimido[5,4-d]pyrimidin-4-yl)-1-methylpiperazin-2-one] | 100 to 500
COCCN(CCOC)c1nc(N2CC(OC)C2)c2nc(N(CCOC)CCOC)nc(N3CCC(OC)CC3)c2n1 [Compound 86, 4-(3-methoxyazetidin-1-yl)-N2,N2,N6,N6-tetrakis(2-methoxyethyl)-8-(4-methoxypiperidin-1-yl)pyrimido[5,4-d]pyrimidine-2,6-diamine] | 100 to 500
COCCN(CCOC)c1nc(N2CC(F)(F)C2)c2nc(N(CCOC)CCOC)nc(N3CCC(OC)CC3)c2n1 [Compound 105, 4-(3,3-difluoroazetidin-1-yl)-N2,N2,N6,N6-tetrakis(2-methoxyethyl)-8-(4-methoxypiperidin-1-yl)pyrimido[5,4-d]pyrimidine-2,6-diamine] | 100 to 500
COCCN(CCOC)c1nc(N2CCN(C)C(=O)C2)c2nc(N3CCNC(=O)C3)nc(N3CCC(OC)CC3)c2n1 [Compound 278, 4-(2-(bis(2-methoxyethyl)amino)-8-(4-methoxypiperidin-1-yl)-6-(3-oxopiperazin-1-yl)pyrimido[5,4-d]pyrimidin-4-yl)-1-methylpiperazin-2-one] | 100 to 500
COCCN(CCOC)c1nc(N2CCN(c3ncn(C)n3)CC2)c2nc(N(CCOC)CCOC)nc(N(C)Cc3cccc(S(N)(=O)=O)c3)c2n1 [Compound 248, 3-(((2,6-bis(bis(2-methoxyethyl)amino)-8-(4-(1-methyl-1H-1,2,4-triazol-3-yl)piperazin-1-yl)pyrimido[5,4-d]pyrimidin-4-yl)(methyl)amino)methyl)benzenesulfonamide] | 100 to 500
COCCN(CCOC)c1nc(N2CCC(OC)CC2)c2nc(N(CCOC)CCOC)nc(NCc3ccc(C(F)(F)F)nc3)c2n1 [Compound 53, N2,N2,N6,N6-tetrakis(2-methoxyethyl)-8-(4-methoxypiperidin-1-yl)-N4-((6-(trifluoromethyl)pyridin-3-yl)methyl)pyrimido[5,4-d]pyrimidine-2,4,6-triamine] | 500 to 1000
COCCN(CCOC)c1nc(N2CCn3nc(C)nc3C2)c2nc(N(CCO)CCO)nc(N3CCC(OC)CC3)c2n1 [Compound 323, 2,2′-((6-(bis(2-methoxyethyl)amino)-4-(4-methoxypiperidin-1-yl)-8-(2-methyl-5,6-dihydro-[1,2,4]triazolo[1,5-a]pyrazin-7(8H)-yl)pyrimido[5,4-d]pyrimidin-2-yl)azanediyl)bis(ethan-1-ol)] | 100 to 500
COCCN(CCOC)c1nc(N2CCN(C3CC3)C(=O)C2)c2nc(N(CCO)CCO)nc(N3CCC(OC)CC3)c2n1 [Compound 316, 4-(6-(bis(2-hydroxyethyl)amino)-2-(bis(2-methoxyethyl)amino)-8-(4-methoxypiperidin-1-yl)pyrimido[5,4-d]pyrimidin-4-yl)-1-cyclopropylpiperazin-2-one] | 500 to 1000
COCCN(CCOC)c1nc(N2CCC(OC)CC2)c2nc(OCc3ccnc(C)c3)nc(N3CCC(OC)CC3)c2n1 [Compound 262, N,N-bis(2-methoxyethyl)-4,8-bis(4-methoxypiperidin-1-yl)-6-((2-methylpyridin-4-yl)methoxy)pyrimido[5,4-d]pyrimidin-2-amine] | 100 to 500

Further lines, results first:

IC50 [nM] | SMILES
100 to 500 | COCCN(CCOC)c1nc(N2CCC(OC)CC2)c2nc(N(CCOC)CCOC)nc(NCc3cncs3)c2n1 [Compound 59, N2,N2,N6,N6-tetrakis(2-methoxyethyl)-8-(4-methoxypiperidin-1-yl)-N4-(thiazol-5-ylmethyl)pyrimido[5,4-d]pyrimidine-2,4,6-triamine]
< 100 | COCCN(CCOC)c1nc(N2CCc3nocc3C2)c2nc(N(CCOC)CCOC)nc(N3CCN(C)C(=O)C3)c2n1 [Compound 254, 4-(2,6-bis(bis(2-methoxyethyl)amino)-8-(6,7-dihydroisoxazolo[4,3-c]pyridin-5(4H)-yl)pyrimido[5,4-d]pyrimidin-4-yl)-1-methylpiperazin-2-one]
100 to 500 | COCCN(CCOC)c1nc(N2CCC(C)C2)c2nc(N(CCOC)CCOC)nc(N3CCC(OC)CC3)c2n1 (centres unmarked) [Compound 91, N2,N2,N6,N6-tetrakis(2-methoxyethyl)-4-(4-methoxypiperidin-1-yl)-8-(3-methylpyrrolidin-1-yl)pyrimido[5,4-d]pyrimidine-2,6-diamine]
100 to 500 | COCCN(CCOC)c1nc(N2CCC(OC)CC2)c2nc(N3CCn4nncc4C3)nc(N3CCN(C)C(=O)C3)c2n1 [Compound 287, 4-(6-(bis(2-methoxyethyl)amino)-2-(6,7-dihydro-[1,2,3]triazolo[1,5-a]pyrazin-5(4H)-yl)-8-(4-methoxypiperidin-1-yl)pyrimido[5,4-d]pyrimidin-4-yl)-1-methylpiperazin-2-one]
< 100 | COCCN(CCOC)c1nc(N2CCC(OC)CC2)c2nc(N(CCOC)CCOC)nc(NCc3ccc(F)c(F)c3)c2n1 [Compound 139, N4-(3,4-difluorobenzyl)-N2,N2,N6,N6-tetrakis(2-methoxyethyl)-8-(4-methoxypiperidin-1-yl)pyrimido[5,4-d]pyrimidine-2,4,6-triamine]
< 100 | COCCN(CCOC)c1nc(N2CCC(OC)CC2)c2nc(N(CCOC)CCOC)nc(NCc3cccc(F)c3)c2n1 [Compound 142, N4-(3-fluorobenzyl)-N2,N2,N6,N6-tetrakis(2-methoxyethyl)-8-(4-methoxypiperidin-1-yl)pyrimido[5,4-d]pyrimidine-2,4,6-triamine]
< 100 | COCCN(CCOC)c1nc(N2CCN(C)C(=O)C2)c2nc(N(CCOC)CCOC)nc(NCc3ccc(F)c(C#N)c3)c2n1 [Compound 211, 5-(((2,6-bis(bis(2-methoxyethyl)amino)-8-(4-methyl-3-oxopiperazin-1-yl)pyrimido[5,4-d]pyrimidin-4-yl)amino)methyl)-2-fluorobenzonitrile]
< 100 | COCCN(CCOC)c1nc(N2CC(O)(C(F)(F)F)C2)c2nc(N(CCOC)CCOC)nc(NCc3ccccc3)c2n1 [Compound 12, 1-(8-(benzylamino)-2,6-bis(bis(2-methoxyethyl)amino)pyrimido[5,4-d]pyrimidin-4-yl)-3-(trifluoromethyl)azetidin-3-ol]
< 100 | COCCCN(CCCOC)c1nc(N2CCC(OC)CC2)c2nc(N(CCCO)CCCO)nc(N3CCN(C)C(=O)C3)c2n1 [Compound 329, 4-(2-(bis(3-hydroxypropyl)amino)-6-(bis(3-methoxypropyl)amino)-8-(4-methoxypiperidin-1-yl)pyrimido[5,4-d]pyrimidin-4-yl)-1-methylpiperazin-2-one]
